Values quoted from earlier work as cited in US10010648B2, “Transdermal delivery system” (Edixomed Limited, priority 2013, dated 2018).

How the values were obtained:
[1] = healthy 70 kg-adult

C=CC(=O)O [acrylic acid]
pKa: 4.3 to 4.4

COC(=O)[C@H]1[C@@H](OC(=O)c2ccccc2)C[C@@H]2CC[C@H]1N2C [cocaine]
generally accepted safe dosage for topical anaesthesia [1]: 200 mg

CCN(CC)CC(=O)Nc1c(C)cccc1C [lidocaine]
generally accepted safe dosage for topical anaesthesia [1]: 750 mg

CCCCNc1ccc(C(=O)OCCN(C)C)cc1 [tetracaine]
generally accepted safe dosage for topical anaesthesia [1]: 50 mg
